As usually defined, the IC50 is the concentration that inhibits the measured activity by half.

The values that follow come from article PMC4564450, “Oral and inhaled p38 MAPK inhibitors: effects on inhaled LPS challenge in healthy subjects” (European Journal of Clinical Pharmacology, 2015).

Data set [1] has as its system phospho-p38 expression in sputum macrophages. Nature of the data set: Immunocytochemistry of sputum macrophages: phospho-p38. In kind it is in vivo, human. To be noted: study 2; for mean percentage of macrophages expressing phospho-p38: PH-797804 30 mg oral or PF-03715455 20 mg inhaled, Post-LPS. The procedure: (§1) Frozen cytospins created from sputum cells were analysed for phosphorylated-Heat Shock Protein 27 (phospho-HSP27) and phospho-p38 expression in sputum macrophages. The methods are fully described in the online supplement. Phospho-p38 and phospho-HSP27 immunoreactivity is presented as percentage of the macrophage population. All analyses were carried out by blinded observers.
Frozen cytospins created from sputum cells were thawed and the cells were fixed in 4% paraformaldehyde in PBS for 10 minutes at room temperature, followed by blocking in normal serum. Cytospins were then incubated with the following primary antibodies overnight at 4 °C; anti-human phosphorylated-p38 (phospho-p38) MAPK (Thr180/Tyr182) antibody (Cat No. 9211S, New England Biolabs, Herts, UK) or phosphorylated-Heat Shock Protein 27 (phospho-HSP27 [Cat No. S82, New England Biolabs]) diluted 1:50 in 1.5% normal serum with 0.5% Triton X-100 (Sigma-Aldrich). Endogenous peroxidase was quenched by incubating cytospins in 3% H2O2 in methanol (0.3% for phospho-p38). Phospho-p38 and phospho-HSP27 were detected using biotinylated goat anti-rabbit IgG secondary antibody (Vector Labs, Peterborough, UK) in conjunction with an avidin–biotin peroxidase complex (Vector Labs) and 3,3’-diaminobenzidine (DAB) substrate. Cell nuclei were counterstained with Gill’s haematoxylin (Sigma-Aldrich). Omission of primary antibody in staining protocol was used as a negative control.
Digital micrographs were obtained through the use of a Nikon Eclipse 80i microscope (Nikon UK Ltd, Surrey, UK) equipped with a QImaging digital camera (Media cybernetics, Marlow, UK) and ImageProPlus 5.1 software (Media Cybernetics). Sputum macrophages (determined by morphology) were analysed for phospho-p38 and phospho-HSP27 expression following single label immunohistochemistry utilising the ImagePro Plus image analysis software; at least 200 macrophages per cytospin were counted. Phospho-p38 and phospho-HSP27 immunoreactivity was presented as percentage of the macrophage population. All analysis was carried out by blinded observers.

Data set [2] relates to phospho-HSP27 expression in sputum macrophages. Put plainly: Immunocytochemistry of sputum macrophages: phospho-HSP27. It is filed as in vivo, human. To be noted: study 2; PH-797804 30 mg oral or PF-03715455 20 mg inhaled; Post-LPS. The procedure:
as §1
Frozen cytospins created from sputum cells were thawed and the cells were fixed in 4% paraformaldehyde in PBS for 10 minutes at room temperature, followed by blocking in normal serum. […] Phospho-p38 and phospho-HSP27 were detected using biotinylated goat anti-rabbit IgG secondary antibody (Vector Labs, Peterborough, UK) in conjunction with an avidin–biotin peroxidase complex (Vector Labs) and 3,3’-diaminobenzidine (DAB) substrate. […]
Digital micrographs were obtained through the use of a Nikon Eclipse 80i microscope (Nikon UK Ltd, Surrey, UK) equipped with a QImaging digital camera (Media cybernetics, Marlow, UK) and ImageProPlus 5.1 software (Media Cybernetics). Sputum macrophages (determined by morphology) were analysed for phospho-p38 and phospho-HSP27 expression following single label immunohistochemistry utilising the ImagePro Plus image analysis software; at least 200 macrophages per cytospin were counted. […]

A short description of data set [3]: Plasma pharmacokinetics (sparse sampling). In kind it is in vivo, human. To be noted: for Plasma concentration: PF-03715455 20 mg inhaled; for concentration at 23 h / concentration at 30.5 h: human, plasma, po, 30 mg, PH-797804 30 mg oral; for concentration at 23 h: 23 h post dose; for concentration at 30.5 h: 30.5 h post dose.
A short description of data set [4]: Drug concentration in sputum supernatant. In kind it is in vivo, human. Particulars: study 2, ten subjects, PF-03715455 inhaled dose, PH-797804 oral dose.
The test system of data set [5] is p38 MAPK. To be noted: no reference given; read-out: enzyme IC50; cited from earlier work.
The conditions of data set [6]: cited from earlier work.

Consider `CC(C)(C)c1cc(NC(=O)NCc2ccccc2Sc2ccc3nnc(-c4ccccc4SCCO)n3c2)n(-c2ccc(O)c(Cl)c2)n1` [PF-03715455], for which the “attenuation of the baseline measurements (macrophages expressing phospho-P38 and phospho-HSP27)” value in data set [1] (PF-03715455 20 mg inhaled) was 45–50%. For the same compound, the “mean percentage of macrophages expressing phospho-p38” value in data set [1] is reported as 25.03%. The “mean percentage of macrophages expressing phospho-HSP27” value in data set [2] turned out to be 26.89%. Moreover, the Plasma concentration is reported as 472.6 (116.4) pg/mL in data set [3] (study 2, 1.5 h post dose) and 110.6 (29.7) pg/mL in data set [3] (study 2, 6.5 h post dose). In addition, in data set [4], the “geometric mean sputum concentration” value is listed as 20 nM. Moreover, in data set [4], the “sputum concentration, range” value lay within 4 to 73 nM. Moreover, the IC50 in data set [5] is 0.005 to 0.05 nM.
With `CNC(=O)c1ccc(C)c(-n2c(C)cc(OCc3ccc(F)cc3F)c(Br)c2=O)c1` [PH-797804], the “mean percentage of macrophages expressing phospho-p38” value in data set [1] worked out at 38.00%. The “mean percentage of macrophages expressing phospho-HSP27” value in data set [2] stood at 42.27%. Besides, in data set [3] (study 1), the concentration at 23 h turned out to be 38.9 ng/mL and the concentration at 30.5 h was found to be 37.8 ng/mL. Moreover, in data set [3] (study 2), the concentration at 23 h stood at 56.8 ng/mL and the concentration at 30.5 h was determined as 49.2 ng/mL. In addition, in data set [4], the “geometric mean sputum concentration” value is given as 4 nM and the “sputum concentration, range” value is 2 to 7 nM. For the same compound, the “improvement of FEV1” value in data set [6] (COPD patients treated for 6 weeks) is on record as 93 mL. Further, in data set [6] (COPD trial), the pulmonary function result was “clinically significant improvement”. The “tolerability in COPD trials” value in data set [6] (oral, up to 24-week duration) is on record as “well tolerated”.
